Data reported in patent US11827628B2, “Compositions and methods for inhibition of the JAK pathway” (Rigel Pharmaceuticals, Inc., priority 2005, dated 2023).
Like-named read-outs stand apart in the source and are kept apart here.

Test system: up-regulation of ICAM-1 (CD54) by IFNγ in U937 human monocytic cells
Assay: U937 IFNγ ICAM1 FACS Assay
Format: cell-based
Settings: ICAM-1 expression by FACS, read-out: IC50, Example 44
How it was run: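 U937 cells in 10% FCS RPMI were preincubated 30 min at 37 °C with an 8-point, 3-fold compound dilution series in duplicate, then stimulated with IFNγ for 18–24 h. Surface ICAM-1 was stained with APC anti-ICAM-1 and read by flow cytometry as geometric mean on live-gated cells. EC50 was derived.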

[1] = U937 cells stimulated with IFNγ

Compound: Cc1ccc(Nc2ncc(F)c(Nc3ccc(CCC#N)cc3)n2)cc1S(N)(=O)=O [III-15, N2-(3-Aminosulfonyl-4-methylphenyl)-N4-[4-(cyanoethylene)phenyl]-5-fluoro-2,4-pyrimidinediamine]
- IC50 [1]: 553 nM

Compound: N#CCCc1ccc(Nc2nc(Nc3ccc(F)c(S(N)(=O)=O)c3)ncc2F)cc1 [III-16, N2-(3-Aminosulfonyl-4-fluorophenyl)-N4-[4-(cyanoethylene)phenyl]-5-fluoro-2,4-pyrimidinediamine]
- IC50 [1]: 1800 nM

Compound: Cc1cnc(Nc2ccc(S(N)(=O)=O)cc2)nc1Nc1ccc(CCC#N)cc1 [III-27, N2-(4-Aminosulfonylphenyl)-N4-(4-cyanoethylenephenyl)-5-methyl-2,4-pyrimidinediamine]
- IC50 [1]: 257 nM

Compound: N#CCCc1ccc(Nc2nc(Nc3cccc(S(N)(=O)=O)c3)ncc2F)cc1C(F)(F)F [III-31, N4-(4-Cyanoethylene-3-trifluoromethylphenyl)-5-fluoro-N2-(3-aminosulfonylphenyl)-2,4-pyrimidinediamine]
- IC50 [1]: 1700 nM

Compound: NS(=O)(=O)c1cccc(Nc2ncc(F)c(Nc3cccc(CNC(=O)C4CC4)c3)n2)c1 [III-39, N2-(3-aminosulfonyl)phenyl-N4-(3-cyclopropylcarbonylaminomethyl)phenyl-5-fluoro-2,4-pyrimidinediamine]
- IC50 [1]: 1440 nM

Compound: Cc1ccc(Nc2ncc(F)c(Nc3cccc(CNC(=O)C4CC4)c3)n2)cc1S(N)(=O)=O [III-40, N2-(3-aminosulfonyl-4-methyl)phenyl-N4-(3-cyclopropylcarbonylaminomethyl)phenyl-5-fluoro-2,4-pyrimidinediamine]
- IC50 [1]: 1120 nM

Compound: NS(=O)(=O)c1cccc(Nc2ncc(F)c(Nc3ccc(Cc4ccncc4)cc3)n2)c1 [III-70, N2-(3-Aminosulfonylphenyl)-5-fluoro-N4-[4-(4-pyridinylmethyl)phenyl]-2,4-pyrimidinediamine]
- IC50 (Homo sapiens, U-937, U937 cells stimulated with IFNγ): 1650 nM

Compound: N2-(3-Aminocarbonyl-5-methylphenyl)-5-fluoro-N2-[4-(1-ethylpyrazol-5-yl)amidophenyl)-2,4-pyrimidinediamine [II-20]
- IC50 [1]: 11500 nM

Compound: N2-(3-Aminocarbonyl-5-methylphenyl)-5-fluoro-N2-[4-(1-methylpyrazol-5-yl)amidophenyl)-2,4-pyrimidinediamine [II-21]
- IC50 [1]: 41700 nM

Compound: N2-[3-Aminosulfonyl-4-(4-methylpiperazin-1-yl)phenyl]-5-fluoro-N4-[2-fluoro-4-(5-methylisoxazol-3-yl)methyleneoxyphenyl]-2,4-pyrimidinediamine [Compound I-251]
- IC50 [1]: 1090 nM
